Measured values as given in patent publication US8202856B2 (Merck Serono SA, priority 2007, dated 2012).
Counter-ions that a name gives are not always drawn.

These compounds were tested against S1P1 receptor (Homo sapiens, UniProt P21453) (assay: 35S-GTPγS binding, membranes from CHO cells expressing S1P1). Conditions: CHO cell membranes expressing S1P1.
Assay type: biochemical
Procedure, shortened: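 Membranes (1–10 μg) from CHO cells expressing the receptor were incubated with compound in 20 mM HEPES pH 7.4, 10 mM MgCl2, 140 mM NaCl, 1.7 μM GDP, saponin and 0.2% BSA. [35S]GTPγS (added at 1.5 nM) was then bound for 60 min at 30 °C. Membrane-bound radioactivity, averaged over triplicates, is expressed relative to S1P activation (n=2).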

S1P1 receptor, sequence (P21453 whole entry): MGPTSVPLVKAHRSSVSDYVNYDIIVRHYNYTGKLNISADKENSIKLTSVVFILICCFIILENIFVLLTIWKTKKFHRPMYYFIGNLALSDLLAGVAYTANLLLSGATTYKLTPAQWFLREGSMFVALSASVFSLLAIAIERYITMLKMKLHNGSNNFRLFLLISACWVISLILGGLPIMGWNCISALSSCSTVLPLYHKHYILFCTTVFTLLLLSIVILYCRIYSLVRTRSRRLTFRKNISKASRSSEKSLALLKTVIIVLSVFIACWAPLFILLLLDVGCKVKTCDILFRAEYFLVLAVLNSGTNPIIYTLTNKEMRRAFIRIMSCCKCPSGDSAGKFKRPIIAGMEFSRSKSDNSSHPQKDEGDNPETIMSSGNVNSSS

EC50 [nM]	SMILES
340	Fc1ccccc1-n1nnc(-c2nc(-c3cccc(C(F)(F)F)c3)no2)c1CN1CCOCC1 [Example 151, 4-[(1-(2-fluorophenyl)-4-{3-[3-(trifluoromethyl)phenyl]-1,2,4-oxadiazol-5-yl}-1H-1,2,3-triazol-5-yl)methyl]morpholine]
78	Nc1cc(-c2noc(-c3nnn(-c4ccccc4F)c3-c3ccncc3)n2)ccn1 [Example 152, 4-{5-[1-(2-fluorophenyl)-5-pyridin-4-yl-1H-1,2,3-triazol-4-yl]-1,2,4-oxadiazol-3-yl}pyridin-2-amine]
90	CC(=O)N1CCc2cc(-c3noc(-c4nnn(-c5ccccc5F)c4-c4ccncc4)n3)ccc21 [Example 153, 1-acetyl-5-{5-[1-(2-fluorophenyl)-5-pyridin-4-yl-1H-1,2,3-triazol-4-yl]-1,2,4-oxadiazol-3-yl}indoline]
918	CCN1CCc2ccc(-c3noc(-c4nnn(-c5ccccc5F)c4-c4ccncc4)n3)cc2C1 [Example 154, 2-ethyl-7-{5-[1-(2-fluorophenyl)-5-pyridin-4-yl-1H-1,2,3-triazol-4-yl]-1,2,4-oxadiazol-3-yl}-1,2,3,4-tetrahydroisoquinoline]
251	Fc1ccccc1-n1nnc(-c2nc(-c3ccc4[nH]cnc4c3)no2)c1-c1ccncc1 [Example 155, 5-{5-[1-(2-fluorophenyl)-5-pyridin-4-yl-1H-1,2,3-triazol-4-yl]-1,2,4-oxadiazol-3-yl}-1H-benzimidazole]
27	Fc1ccccc1-n1nnc(-c2nc(-c3ccc4c(c3)CCN4)no2)c1-c1ccncc1 [Example 156, 5-{5-[1-(2-fluorophenyl)-5-pyridin-4-yl-1H-1,2,3-triazol-4-yl]-1,2,4-oxadiazol-3-yl}indoline hydrochloride]
218	Fc1ccccc1-n1nnc(-c2nc(-c3ccc4c(c3)NCC4)no2)c1-c1ccncc1 [Example 157, 6-{5-[1-(2-fluorophenyl)-5-pyridin-4-yl-1H-1,2,3-triazol-4-yl]-1,2,4-oxadiazol-3-yl}indoline]
56	O=C(O)C1CCCN(Cc2ccc(-c3noc(-c4nnn(-c5ccccc5F)c4-c4ccncc4)n3)cc2)C1 (stereo not drawn) [Example 158, 1-(4-{5-[1-(2-fluorophenyl)-5-pyridin-4-yl-1H-1,2,3-triazol-4-yl]-1,2,4-oxadiazol-3-yl}benzyl)piperidine-3-carboxylic acid]
574	O=C(O)[C@@H]1CCCN1Cc1ccc(-c2noc(-c3nnn(-c4ccccc4F)c3-c3ccncc3)n2)cc1 [Example 159, 1-(4-{5-[1(2-fluorophenyl)-5-pyridin-4-yl-1H-1,2,3-triazol-4-yl]-1,2,4-oxadiazol-3-yl}benzyl)-L-proline]
71	Fc1ccccc1-n1nnc(-c2nc(-c3ccc(CN4CC[C@@H](F)C4)cc3)no2)c1-c1ccncc1 [Example 160, 4-{1-(2-fluorophenyl)-4-[3-(4-{[(3R)-3-fluoropyrrolidin-1-yl]methyl}phenyl)-1,2,4-oxadiazol-5-yl]-1H-1,2,3-triazol-5-yl}pyridine]
545	Fc1ccccc1-n1nnc(-c2nc(-c3ccc(CN4CCC(F)(F)CC4)cc3)no2)c1-c1ccncc1 [Example 161]
211	O=C(O)C1(NCc2ccc(-c3noc(-c4nnn(-c5ccccc5F)c4-c4ccncc4)n3)cc2)CC1 [Example 162, 1-(4-(5-(1-(2-fluorophenyl)-5-(pyridin-4-yl)-1H-1,2,3-triazol-4-yl)-1,2,4-oxadiazol-3-yl)benzylamino)cyclopropanecarboxylic acid]
80	O=C(O)[C@H]1CC[C@@H](NCc2ccc(-c3noc(-c4nnn(-c5ccccc5F)c4-c4ccncc4)n3)cc2)CC1 [Example 163]
27	Fc1ccccc1-n1nnc(-c2nc(-c3ccc(CNC4CC4)cc3)no2)c1-c1ccncc1 [Example 164, N-(4-{5-[1-2-fluorophenyl)-5-pyridin-4-yl-1H-1,2,3-triazol-4-yl]-1,2,4-oxadiazol-3-yl}benzyl)cyclopropanamine formate]
17	CC(C)NCc1ccc(-c2noc(-c3nnn(-c4ccccc4F)c3-c3ccncc3)n2)cc1 [Example 165, N-(4-{5-[1-(2-fluorophenyl)-5-pyridin-4-yl-1H-1,2,3-triazol-4-yl]-1,2,4-oxadiazol-3-yl}benzyl)propan-2-amine]
218	COCCN(C)Cc1ccc(-c2noc(-c3nnn(-c4ccccc4F)c3-c3ccncc3)n2)cc1 [Example 166, N-(4-(5-(1-(2-fluorophenyl)-5-(pyridin-4-yl)-1H-1,2,3-triazol-4-yl)-1,2,4-oxadiazol-3-yl)benzyl)-2-methoxy-N-methylethanamine]
15	Fc1ccccc1-n1nnc(-c2nc(-c3ccc(CN4CC[C@H](F)C4)cc3)no2)c1-c1ccncc1 [Example 167, 4-{1-(2-fluorophenyl)-4-[3-(4-{[(3S)-3-fluoropyrrolidin-1-yl]methyl}phenyl)-1,2,4-oxadiazol-5-yl]-1H-1,2,3-triazol-5-yl}pyridine]
16	O=C(O)[C@H]1CC[C@H](NCc2ccc(-c3noc(-c4nnn(-c5ccccc5F)c4-c4ccncc4)n3)cc2)CC1 [Example 168, (trans)-4-(4-(5-(1-(2-fluorophenyl)-5-(pyridin-4-yl)-1H-1,2,3-triazol-4-yl)-1,2,4-oxadiazol-3-yl)benzylamino)cyclohexanecarboxylic acid]
8	O=C(O)[C@H]1CC[C@@H](NCc2ccc(-c3noc(-c4nnn(-c5ccccc5F)c4-c4ccncc4)n3)cc2)C1 [Example 169, (1S, 3R)-3-(4-(5-(1-(2-fluorophenyl)-5-(pyridin-4-yl)-1H-1,2,3-triazol-4-yl)-1,2,4-oxadiazol-3-yl)benzylamino)cyclopentanecarboxylic acid]
4	Fc1ccccc1-n1nnc(-c2nc(-c3ccc(Cn4ccnc4)cc3)no2)c1-c1ccncc1 [Example 170, 4-(1-(2-fluorophenyl)-4-{3-[4-(1H-imidazol-1-ylmethyl)phenyl]-1,2,4-oxadiazol-5-yl}-1H-1,2,3-triazol-5-yl)pyridine]
11	Fc1ccccc1-n1nnc(-c2nc(-c3ccc(Cn4cccn4)cc3)no2)c1-c1ccncc1 [Example 171, 4-(1-(2-fluorophenyl)-4-{3-[4-(1H-pyrazol-1-ylmethyl)phenyl]-1,2,4-oxadiazol-5-yl}-1H-1,2,3-triazol-5-yl)pyridine]
5	Fc1ccccc1-n1nnc(-c2nc(-c3ccc(Cn4cncn4)cc3)no2)c1-c1ccncc1 [Example 172, 4-(1-(2-fluorophenyl)-4-{3-[4-(1H-1,2,4-triazol-1-ylmethyl)phenyl]-1,2,4-oxadiazol-5-yl}-1H-1,2,3-triazol-5-yl)pyridine]
240	COCc1c(-c2nc(-c3ccc(Cn4cccn4)cc3)no2)nnn1-c1ccccc1F [Example 173, 5-[1-(2-fluorophenyl)-5-(methoxymethyl)-1H-1,2,3-triazol-4-yl]-3-[4-(1H-pyrazol-1-ylmethyl)phenyl]-1,2,4-oxadiazole]
162	CC(C)(NCc1ccc(-c2noc(-c3nnn(-c4ccccc4F)c3-c3ccncc3)n2)cc1)C(=O)O [Example 174, N-(4-{5-[1-(2-fluorophenyl)-5-pyridin-4-yl-1H-1,2,3-triazol-4-yl]-1,2,4-oxadiazol-3-yl}benzyl)-2-methylalanine]
67	COCc1c(-c2nc(-c3ccc(Cn4ccnc4)cc3)no2)nnn1-c1ccccc1F [Example 175, 5-[1-(2-fluorophenyl)-5-(methoxymethyl)-1H-1,2,3-triazol-4-yl]-3-[4-(1H-imidazol-1-ylmethyl)phenyl]-1,2,4-oxadiazole]
105	COCc1c(-c2nc(-c3ccc(Cn4cncn4)cc3)no2)nnn1-c1ccccc1F [Example 176, 5-[1-(2-fluorophenyl)-5-(methoxymethyl)-1H-1,2,3-triazol-4-yl]-3-[4-(1H-1,2,4-triazol-1-ylmethyl)phenyl]-1,2,4-oxadiazole]
742	O=C(O)[C@H]1CCC[C@H]1NCc1ccc(-c2noc(-c3nnn(-c4ccccc4F)c3-c3ccncc3)n2)cc1 [Example 177, (1S,2R)-2-[(4-{5-[1-(2-fluorophenyl)-5-pyridin-4-yl-1H-1,2,3-triazol-4-yl]-1,2,4-oxadiazol-3-yl}benzyl)amino]cyclopentanecarboxylic acid]
